Data published in the kinase profiling compilation of Christmann-Franck et al. (2016).
Each block holds one compound with its values, some of them ahead of it.

How the values were obtained:
Assay in all cases: radiometric filter-binding kinase assay
YES1 (human) = YES1 (human) (UniProt P07947)
NTRK1 (human) = NTRK1 (human) (UniProt P04629)
MAPK13 (human) = MAPK13 (human) (UniProt O15264)
PRKAA1 or PRKAA2 (rat) = details: accession and sequence are those of the human protein
LCK (mouse) = details: accession and sequence are those of the human protein
DYRK1A (human) = DYRK1A (human) (UniProt Q13627)
EPHB3 (human) = EPHB3 (human) (UniProt P54753)
INSRR (human) = INSRR (human) (UniProt P14616)
PHKG1 (human) = PHKG1 (human) (UniProt Q16816)
MARK3 (human) = MARK3 (human) (UniProt P27448)
CSNK2A1 (human) = CSNK2A1 (human) (UniProt P68400)
PRKACA (human) = PRKACA (human) (UniProt P17612)
RIPK2 (human) = RIPK2 (human) (UniProt O43353)
CAMKK2 (human) = CAMKK2 (human) (UniProt Q96RR4)
MKNK1 (human) = MKNK1 (human) (UniProt Q9BUB5)
[1] = tested on: AKT2 (human), P31751 [S474D]
MAP2K1 (human) = MAP2K1 (human) (UniProt Q02750)
JAK2 JH1 JH2 (human) = JAK2 JH1 JH2 (human) (UniProt O60674)
CaMK1 (human) = CaMK1 (human) (UniProt Q14012)
MAPK10 (human) = MAPK10 (human) (UniProt P53779)
IGF1R (human) = IGF1R (human) (UniProt P08069)
AURKB (human) = AURKB (human) (UniProt Q96GD4)
SRC (human) = SRC (human) (UniProt P12931)
NUAK1 (human) = NUAK1 (human) (UniProt O60285)
SYK (human) = SYK (human) (UniProt P43405)
MAP3K11 (human) = MAP3K11 (human) (UniProt Q16584)
MINK1 (human) = MINK1 (human) (UniProt Q8N4C8)
PRKCZ (human) = PRKCZ (human) (UniProt Q05513)
CHEK1 (human) = CHEK1 (human) (UniProt O14757)
CDK2 CCNA2 (human) = CDK2 CCNA2 (human) (UniProt P20248+P24941)
MST4 (human) = MST4 (human) (UniProt Q9P289)
PAK4 (human) = PAK4 (human) (UniProt O96013)
MARK4 (human) = MARK4 (human) (UniProt Q96L34)
MAP3K9 (human) = MAP3K9 (human) (UniProt P80192)
PIM2 (human) = PIM2 (human) (UniProt Q9P1W9)

Chain of EPHB3 (human) (P54753 whole entry, looked up): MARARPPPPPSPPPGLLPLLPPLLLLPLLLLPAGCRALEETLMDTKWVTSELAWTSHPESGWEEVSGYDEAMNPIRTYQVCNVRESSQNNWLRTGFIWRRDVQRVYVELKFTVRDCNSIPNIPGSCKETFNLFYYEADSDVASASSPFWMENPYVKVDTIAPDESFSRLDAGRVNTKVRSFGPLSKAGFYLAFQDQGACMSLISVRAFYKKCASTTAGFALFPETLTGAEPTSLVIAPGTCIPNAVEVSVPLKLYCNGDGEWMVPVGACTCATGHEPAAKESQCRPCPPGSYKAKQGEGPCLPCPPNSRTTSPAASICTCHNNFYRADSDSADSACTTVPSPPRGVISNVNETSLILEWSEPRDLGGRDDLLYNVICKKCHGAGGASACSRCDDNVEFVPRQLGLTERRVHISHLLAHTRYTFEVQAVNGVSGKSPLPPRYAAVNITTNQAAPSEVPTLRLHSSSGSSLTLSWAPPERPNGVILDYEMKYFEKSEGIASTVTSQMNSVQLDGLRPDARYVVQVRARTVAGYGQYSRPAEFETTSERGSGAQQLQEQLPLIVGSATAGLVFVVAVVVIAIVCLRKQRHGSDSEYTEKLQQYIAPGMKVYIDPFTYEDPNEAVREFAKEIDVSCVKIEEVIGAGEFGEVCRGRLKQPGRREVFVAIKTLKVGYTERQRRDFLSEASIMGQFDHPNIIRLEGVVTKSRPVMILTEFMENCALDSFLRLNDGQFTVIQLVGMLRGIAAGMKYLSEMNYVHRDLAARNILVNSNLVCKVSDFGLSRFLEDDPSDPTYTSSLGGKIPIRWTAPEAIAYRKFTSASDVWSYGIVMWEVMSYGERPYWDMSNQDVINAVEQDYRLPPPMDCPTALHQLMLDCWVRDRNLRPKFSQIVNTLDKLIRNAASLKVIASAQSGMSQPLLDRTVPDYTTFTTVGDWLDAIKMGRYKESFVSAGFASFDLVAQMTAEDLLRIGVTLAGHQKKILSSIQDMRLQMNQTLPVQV
Chain of MINK1 (human) (Q8N4C8 whole entry, looked up): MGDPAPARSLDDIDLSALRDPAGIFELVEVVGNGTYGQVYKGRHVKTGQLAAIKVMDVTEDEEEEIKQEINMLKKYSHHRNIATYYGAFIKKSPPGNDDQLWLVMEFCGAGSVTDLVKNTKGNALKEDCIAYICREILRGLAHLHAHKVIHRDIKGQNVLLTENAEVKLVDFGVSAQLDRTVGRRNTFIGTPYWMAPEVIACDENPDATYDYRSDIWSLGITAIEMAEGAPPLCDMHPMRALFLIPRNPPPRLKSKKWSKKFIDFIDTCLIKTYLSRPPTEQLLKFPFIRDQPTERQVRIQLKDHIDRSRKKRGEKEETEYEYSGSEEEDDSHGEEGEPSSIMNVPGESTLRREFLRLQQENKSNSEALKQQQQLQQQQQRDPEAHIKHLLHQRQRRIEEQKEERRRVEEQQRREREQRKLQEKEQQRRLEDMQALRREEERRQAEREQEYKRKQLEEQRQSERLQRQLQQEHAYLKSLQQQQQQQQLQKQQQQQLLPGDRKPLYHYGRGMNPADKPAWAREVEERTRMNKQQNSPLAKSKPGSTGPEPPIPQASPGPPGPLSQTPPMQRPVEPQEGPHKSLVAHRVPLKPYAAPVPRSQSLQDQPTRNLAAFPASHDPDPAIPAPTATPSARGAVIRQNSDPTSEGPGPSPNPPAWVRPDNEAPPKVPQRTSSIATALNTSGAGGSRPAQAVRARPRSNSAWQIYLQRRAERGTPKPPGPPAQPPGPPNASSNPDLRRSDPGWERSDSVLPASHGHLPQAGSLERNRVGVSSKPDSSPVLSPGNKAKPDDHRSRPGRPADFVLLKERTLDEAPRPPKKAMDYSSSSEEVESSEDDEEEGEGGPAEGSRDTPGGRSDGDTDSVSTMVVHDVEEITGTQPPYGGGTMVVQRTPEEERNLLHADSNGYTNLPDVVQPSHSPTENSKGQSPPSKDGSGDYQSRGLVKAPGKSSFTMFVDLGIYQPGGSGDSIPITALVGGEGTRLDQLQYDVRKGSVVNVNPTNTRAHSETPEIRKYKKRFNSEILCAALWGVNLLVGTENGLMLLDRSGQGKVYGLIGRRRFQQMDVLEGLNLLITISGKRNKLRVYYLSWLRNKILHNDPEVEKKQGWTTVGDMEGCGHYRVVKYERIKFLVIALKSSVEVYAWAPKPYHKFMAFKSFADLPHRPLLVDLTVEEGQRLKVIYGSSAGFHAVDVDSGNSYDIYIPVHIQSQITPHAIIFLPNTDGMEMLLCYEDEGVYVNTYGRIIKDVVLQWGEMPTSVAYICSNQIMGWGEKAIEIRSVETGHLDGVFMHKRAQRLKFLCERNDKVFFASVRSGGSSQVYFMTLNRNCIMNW
Chain of CHEK1 (human) (O14757 whole entry, looked up): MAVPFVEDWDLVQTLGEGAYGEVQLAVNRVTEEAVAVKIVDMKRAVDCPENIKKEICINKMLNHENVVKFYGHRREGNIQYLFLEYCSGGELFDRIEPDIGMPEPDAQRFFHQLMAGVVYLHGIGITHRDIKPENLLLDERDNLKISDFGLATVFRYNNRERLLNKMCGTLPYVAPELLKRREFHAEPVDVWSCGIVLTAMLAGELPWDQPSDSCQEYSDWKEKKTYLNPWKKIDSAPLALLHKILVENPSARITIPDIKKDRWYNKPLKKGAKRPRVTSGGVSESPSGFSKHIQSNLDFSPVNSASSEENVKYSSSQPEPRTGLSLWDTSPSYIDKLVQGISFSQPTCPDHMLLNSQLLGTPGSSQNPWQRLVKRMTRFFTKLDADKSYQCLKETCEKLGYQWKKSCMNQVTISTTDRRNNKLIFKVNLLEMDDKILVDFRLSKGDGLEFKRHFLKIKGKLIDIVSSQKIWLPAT
Chain of NTRK1 (human) (P04629 whole entry, looked up): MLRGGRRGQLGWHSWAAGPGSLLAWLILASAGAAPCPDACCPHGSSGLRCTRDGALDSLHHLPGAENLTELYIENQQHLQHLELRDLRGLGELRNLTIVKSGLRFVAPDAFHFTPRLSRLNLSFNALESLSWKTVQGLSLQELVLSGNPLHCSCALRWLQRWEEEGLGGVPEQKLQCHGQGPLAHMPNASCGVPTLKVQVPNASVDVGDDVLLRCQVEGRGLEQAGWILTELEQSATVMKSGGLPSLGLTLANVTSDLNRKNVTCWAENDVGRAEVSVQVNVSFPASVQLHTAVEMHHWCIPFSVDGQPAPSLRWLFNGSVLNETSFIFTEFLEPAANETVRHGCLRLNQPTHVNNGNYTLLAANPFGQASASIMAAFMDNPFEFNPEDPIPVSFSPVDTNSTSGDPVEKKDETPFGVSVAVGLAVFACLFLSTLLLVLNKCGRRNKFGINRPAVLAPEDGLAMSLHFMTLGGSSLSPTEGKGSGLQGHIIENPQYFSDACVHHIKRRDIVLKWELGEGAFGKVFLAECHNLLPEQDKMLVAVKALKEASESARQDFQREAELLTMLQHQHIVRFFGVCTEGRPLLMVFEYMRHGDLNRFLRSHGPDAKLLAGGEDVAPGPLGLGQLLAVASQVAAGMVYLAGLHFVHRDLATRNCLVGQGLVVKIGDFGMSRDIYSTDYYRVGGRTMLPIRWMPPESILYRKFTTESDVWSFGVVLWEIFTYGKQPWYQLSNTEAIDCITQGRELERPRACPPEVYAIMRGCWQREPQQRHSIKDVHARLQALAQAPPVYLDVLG
Chain of PAK4 (human) (O96013 whole entry, looked up): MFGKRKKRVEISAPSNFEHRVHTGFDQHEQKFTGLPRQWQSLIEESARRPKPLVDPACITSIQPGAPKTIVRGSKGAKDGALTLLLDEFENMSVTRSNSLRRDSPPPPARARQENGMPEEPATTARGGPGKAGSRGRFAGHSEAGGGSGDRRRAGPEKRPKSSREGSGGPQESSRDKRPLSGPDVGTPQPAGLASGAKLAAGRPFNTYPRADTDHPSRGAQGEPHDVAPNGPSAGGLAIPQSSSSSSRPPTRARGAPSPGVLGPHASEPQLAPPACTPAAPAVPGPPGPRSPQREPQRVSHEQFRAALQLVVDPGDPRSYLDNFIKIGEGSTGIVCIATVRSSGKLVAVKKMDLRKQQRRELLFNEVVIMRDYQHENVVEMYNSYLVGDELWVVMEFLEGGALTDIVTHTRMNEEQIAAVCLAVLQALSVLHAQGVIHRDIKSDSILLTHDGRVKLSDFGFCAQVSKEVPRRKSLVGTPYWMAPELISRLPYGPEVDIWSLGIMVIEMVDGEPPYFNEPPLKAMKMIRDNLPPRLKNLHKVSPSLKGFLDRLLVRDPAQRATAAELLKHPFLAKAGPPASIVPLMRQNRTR
Chain of MAP2K1 (human) (Q02750 whole entry, looked up): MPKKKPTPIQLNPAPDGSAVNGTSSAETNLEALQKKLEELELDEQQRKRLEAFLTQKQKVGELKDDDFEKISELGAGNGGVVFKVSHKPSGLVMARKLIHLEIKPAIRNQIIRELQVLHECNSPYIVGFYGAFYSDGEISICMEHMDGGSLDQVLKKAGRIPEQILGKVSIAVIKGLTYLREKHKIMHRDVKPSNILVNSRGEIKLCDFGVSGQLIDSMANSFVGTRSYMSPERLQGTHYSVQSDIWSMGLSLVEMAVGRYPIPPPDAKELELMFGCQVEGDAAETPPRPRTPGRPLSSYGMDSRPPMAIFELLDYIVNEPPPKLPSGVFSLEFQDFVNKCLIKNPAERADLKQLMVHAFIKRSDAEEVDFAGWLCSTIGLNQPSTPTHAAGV
Chain of MAPK13 (human) (O15264 whole entry, looked up): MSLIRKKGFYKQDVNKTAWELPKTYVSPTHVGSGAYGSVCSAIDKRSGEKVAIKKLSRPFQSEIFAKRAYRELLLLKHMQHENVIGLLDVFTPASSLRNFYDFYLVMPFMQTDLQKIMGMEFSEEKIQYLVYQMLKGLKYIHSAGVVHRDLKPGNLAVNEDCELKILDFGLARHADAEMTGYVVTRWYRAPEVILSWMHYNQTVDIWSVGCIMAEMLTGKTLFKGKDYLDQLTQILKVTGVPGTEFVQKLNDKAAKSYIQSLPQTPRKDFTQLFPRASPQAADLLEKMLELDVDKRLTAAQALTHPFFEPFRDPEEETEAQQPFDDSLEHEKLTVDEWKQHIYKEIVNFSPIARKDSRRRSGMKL

residual activity (YES1 (human); compound 1.0 µM): 82%
residual activity (YES1 (human); compound 10.0 µM): 86%
residual activity (NTRK1 (human); compound 1.0 µM): 72%
residual activity (NTRK1 (human); compound 10.0 µM): 75%
residual activity (MAPK13 (human); compound 1.0 µM): 85%
residual activity (MAPK13 (human); compound 10.0 µM): 97%
residual activity (PRKAA1 or PRKAA2 (rat); compound 1.0 µM): 110%
residual activity (PRKAA1 or PRKAA2 (rat); compound 10.0 µM): 107%
residual activity (LCK (mouse); compound 1.0 µM): 92%
residual activity (LCK (mouse); compound 10.0 µM): 109%
residual activity (DYRK1A (human); compound 1.0 µM): 94%
residual activity (DYRK1A (human); compound 10.0 µM): 104%
residual activity (EPHB3 (human); compound 1.0 µM): 101%
residual activity (EPHB3 (human); compound 10.0 µM): 113%
residual activity (INSRR (human); compound 1.0 µM): 106%
residual activity (PHKG1 (human); compound 1.0 µM): 95%
residual activity (PHKG1 (human); compound 10.0 µM): 90%
residual activity (MARK3 (human); compound 1.0 µM): 91%
residual activity (MARK3 (human); compound 10.0 µM): 74%
residual activity (CSNK2A1 (human); compound 1.0 µM): 107%
residual activity (CSNK2A1 (human); compound 10.0 µM): 118%
residual activity (PRKACA (human); compound 1.0 µM): 87%
residual activity (PRKACA (human); compound 10.0 µM): 97%
residual activity (RIPK2 (human); compound 1.0 µM): 99%
residual activity (RIPK2 (human); compound 10.0 µM): 100%
residual activity (CAMKK2 (human); compound 1.0 µM): 92%
residual activity (CAMKK2 (human); compound 10.0 µM): 94%
residual activity (MKNK1 (human); compound 1.0 µM): 103%
residual activity (MKNK1 (human); compound 10.0 µM): 104%
residual activity ([1]; compound 1.0 µM): 95%
residual activity ([1]; compound 10.0 µM): 82%
residual activity (MAP2K1 (human); compound 1.0 µM): 18%
residual activity (MAP2K1 (human); compound 10.0 µM): 2%
residual activity (JAK2 JH1 JH2 (human); compound 1.0 µM): 8%
residual activity (JAK2 JH1 JH2 (human); compound 10.0 µM): 9%
residual activity (CaMK1 (human); compound 1.0 µM): 96%
residual activity (CaMK1 (human); compound 10.0 µM): 91%
residual activity (MAPK10 (human); compound 10.0 µM): 85%
residual activity (IGF1R (human); compound 1.0 µM): 88%
residual activity (IGF1R (human); compound 10.0 µM): 113%
residual activity (AURKB (human); compound 1.0 µM): 87%
residual activity (AURKB (human); compound 10.0 µM): 82%
residual activity (SRC (human); compound 1.0 µM): 104%
residual activity (SRC (human); compound 10.0 µM): 91%
residual activity (NUAK1 (human); compound 1.0 µM): 89%
residual activity (NUAK1 (human); compound 10.0 µM): 107%
residual activity (SYK (human); compound 1.0 µM): 111%
residual activity (MAP3K11 (human); compound 1.0 µM): 83%
residual activity (MAP3K11 (human); compound 10.0 µM): 92%
residual activity (MINK1 (human); compound 1.0 µM): 117%
residual activity (MINK1 (human); compound 10.0 µM): 144%
residual activity (PRKCZ (human); compound 1.0 µM): 97%
residual activity (PRKCZ (human); compound 10.0 µM): 104%
residual activity (CHEK1 (human); compound 1.0 µM): 130%
residual activity (CHEK1 (human); compound 10.0 µM): 122%
residual activity (CDK2 CCNA2 (human); compound 1.0 µM): 110%
residual activity (CDK2 CCNA2 (human); compound 10.0 µM): 109%
residual activity (MST4 (human); compound 1.0 µM): 103%
residual activity (MST4 (human); compound 10.0 µM): 104%
residual activity (PAK4 (human); compound 10.0 µM): 65%
residual activity (MARK4 (human); compound 1.0 µM): 112%
residual activity (MARK4 (human); compound 10.0 µM): 127%
residual activity (MAP3K9 (human); compound 1.0 µM): 95%
residual activity (MAP3K9 (human); compound 10.0 µM): 108%
SMILES: O=C(NOC[C@H](O)CO)c1ccc(F)c(F)c1Nc1ccc(I)cc1Cl

residual activity (YES1 (human); compound 5.0 µM): 109%
residual activity (NTRK1 (human); compound 1.0 µM): 106%
residual activity (NTRK1 (human); compound 5.0 µM): 83%
residual activity (MAPK13 (human); compound 1.0 µM): 115%
residual activity (MAPK13 (human); compound 5.0 µM): 113%
residual activity (PRKAA1 or PRKAA2 (rat); compound 1.0 µM): 97%
residual activity (PRKAA1 or PRKAA2 (rat); compound 5.0 µM): 98%
residual activity (LCK (mouse); compound 1.0 µM): 112%
residual activity (DYRK1A (human); compound 1.0 µM): 120%
residual activity (DYRK1A (human); compound 5.0 µM): 101%
residual activity (EPHB3 (human); compound 1.0 µM): 95%
residual activity (EPHB3 (human); compound 5.0 µM): 115%
residual activity (INSRR (human); compound 1.0 µM): 107%
residual activity (INSRR (human); compound 5.0 µM): 95%
residual activity (PHKG1 (human); compound 1.0 µM): 116%
residual activity (PHKG1 (human); compound 5.0 µM): 108%
residual activity (MARK3 (human); compound 1.0 µM): 123%
residual activity (MARK3 (human); compound 5.0 µM): 98%
residual activity (PIM2 (human); compound 1.0 µM): 110%
residual activity (PIM2 (human); compound 5.0 µM): 102%
residual activity (CSNK2A1 (human); compound 1.0 µM): 117%
residual activity (CSNK2A1 (human); compound 5.0 µM): 106%
residual activity (PRKACA (human); compound 1.0 µM): 121%
residual activity (PRKACA (human); compound 5.0 µM): 103%
residual activity (RIPK2 (human); compound 1.0 µM): 101%
residual activity (RIPK2 (human); compound 5.0 µM): 112%
residual activity (MKNK1 (human); compound 1.0 µM): 116%
residual activity (MKNK1 (human); compound 5.0 µM): 94%
residual activity ([1]; compound 1.0 µM): 101%
residual activity ([1]; compound 5.0 µM): 92%
residual activity (MAP2K1 (human); compound 1.0 µM): 96%
residual activity (MAP2K1 (human); compound 5.0 µM): 93%
residual activity (JAK2 JH1 JH2 (human); compound 1.0 µM): 116%
residual activity (JAK2 JH1 JH2 (human); compound 5.0 µM): 98%
residual activity (CaMK1 (human); compound 1.0 µM): 116%
residual activity (CaMK1 (human); compound 5.0 µM): 104%
residual activity (MAPK10 (human); compound 1.0 µM): 115%
residual activity (MAPK10 (human); compound 5.0 µM): 134%
residual activity (IGF1R (human); compound 1.0 µM): 120%
residual activity (IGF1R (human); compound 5.0 µM): 109%
residual activity (AURKB (human); compound 1.0 µM): 106%
residual activity (AURKB (human); compound 5.0 µM): 99%
residual activity (SRC (human); compound 1.0 µM): 110%
residual activity (SRC (human); compound 5.0 µM): 111%
residual activity (NUAK1 (human); compound 1.0 µM): 130%
residual activity (NUAK1 (human); compound 5.0 µM): 111%
residual activity (SYK (human); compound 1.0 µM): 102%
residual activity (SYK (human); compound 5.0 µM): 105%
residual activity (MAP3K11 (human); compound 1.0 µM): 104%
residual activity (MAP3K11 (human); compound 5.0 µM): 116%
residual activity (MINK1 (human); compound 1.0 µM): 108%
residual activity (MINK1 (human); compound 5.0 µM): 122%
residual activity (PRKCZ (human); compound 1.0 µM): 117%
residual activity (PRKCZ (human); compound 5.0 µM): 98%
residual activity (CHEK1 (human); compound 1.0 µM): 123%
residual activity (CHEK1 (human); compound 5.0 µM): 98%
residual activity (CDK2 CCNA2 (human); compound 1.0 µM): 93%
residual activity (CDK2 CCNA2 (human); compound 5.0 µM): 116%
residual activity (MST4 (human); compound 1.0 µM): 88%
residual activity (MST4 (human); compound 5.0 µM): 94%
residual activity (PAK4 (human); compound 1.0 µM): 93%
residual activity (PAK4 (human); compound 5.0 µM): 104%
residual activity (MARK4 (human); compound 1.0 µM): 111%
residual activity (MARK4 (human); compound 5.0 µM): 93%
residual activity (MAP3K9 (human); compound 1.0 µM): 117%
residual activity (MAP3K9 (human); compound 5.0 µM): 95%
SMILES: C=C1C(=O)OC2C1CC/C(C)=C/CCC1(C)OC21 (stereo not given)
